Reference: PMC9720492 (2022)

Tested on: wHTel-26 (DNA, G4) TTAGGGTTAGGGTTAGGGTTAGGGTT
Assay: CD melting
Conditions: 100 mM KCl; 10 mM phosphate, 1 mM EDTA, pH 7.0; 20 µM DNA, D/N 5.0

CCN(CC)CCC(=O)Nc1ccc2c(c1)C(=O)c1ccc(NC(=O)CCN(CC)CC)cc1C2=O
Tm: 10–13 (±2) °C
